From patent US20230227427A1, “IL-17A MODULATORS” (SANOFI, priority 2010, published 2023)
Read-outs that look alike come from different tables or passages of the source.

Biological target: T1, human recombinant IL-17A (Homo sapiens, UniProt Q16552)
T1 construct: purchased R&D Systems 7955-IL/CF
T1 sequence (Q16552 24-155): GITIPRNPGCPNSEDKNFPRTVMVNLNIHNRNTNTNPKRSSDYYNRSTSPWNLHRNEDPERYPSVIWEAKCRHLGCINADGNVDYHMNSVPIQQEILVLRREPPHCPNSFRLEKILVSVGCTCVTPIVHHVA
Assay: IL-17A AlphaLISA assay (block binding of IL-17A to its receptor IL-17RA)
Details: read-out: AlphaLISA pIC50 (converted)
Outline: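 PBS with 0.05% Tween-20 and 0.1% BSA. IL-17A stock 7.5 nM, IL-17RA/Fc stock 5 nM; compound–cytokine pre-incubation 24 h at RT, or 30 min where marked, then 90 min with receptor. pIC50 from 4-parameter logistic AlphaLISA signal, normalised to DMSO and 6 μM reference inhibitor.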

[1] = compounds pre-incubated with the IL-17A for 24 h at room temperature
[2] = compounds pre-incubated with the IL-17A for 30 min (indicated by * in Table A)

Row | SMILES | IC50 [1] | IC50 [2]
1 | Cn1nccc1C(=O)N[C@H](C(=O)Nc1ccc(-c2ccncc2CC(=O)N2CCCC2)cc1)[C@H]1CC[C@H](C)CC1 [Example 86, 1-Methyl-N—((S)-1-((1r,4S)-4-methylcyclohexyl)-2-oxo-2-((4-(3-(2-oxo-2-(pyrrolidin-1-yl)ethyl)pyridin-4-yl)phenyl)amino)ethyl)-1H-pyrazole-5-carboxamide] | 0.251 µM | –
2 | Cc1n[nH]cc1-c1ccc(NC(=O)[C@@H](NC(=O)c2ccnn2C)C(c2ccccc2)c2ccccc2)cc1F [Example 65, (S)—N-(1-((3-fluoro-4-(3-methyl-1H-pyrazol-4-yl)phenyl)amino)-1-oxo-3,3-diphenylpropan-2-yl)-1-methyl-1H-pyrazole-5-carboxamide] | 0.0501 µM | –
3 | Cc1c[n+]([O-])cc(C)c1-c1ccc(NC(=O)[C@@H](NC(=O)c2ccnn2C)C(c2ccccc2)c2ccccc2)cc1 [Example 26, (S)-3,5-dimethyl-4-(4-(2-(1-methyl-1H-pyrazole-5-carboxamido)-3,3-diphenylpropanamido)phenyl)pyridine 1-oxide] | 0.00794 µM | –
4 | CCn1nccc1C(=O)N[C@H](C(=O)Nc1ccc(-c2ccc(=O)[nH]n2)c(F)c1)C(c1ccccc1)c1ccccc1 [Example 34, (S)-1-ethyl-N-(1-((3-fluoro-4-(6-oxo-1,6-dihydropyridazin-3-yl)phenyl)amino)-1-oxo-3,3-diphenylpropan-2-yl)-1H-pyrazole-5-carboxamide] | 0.2 µM | –
5 | Cc1cncc(C)c1-c1ccc(NC(=O)[C@@H](NC(=O)c2ccnn2C)C2CCC(F)(F)CC2)cc1 (single isomer, unassigned) [Example 98] | – | 0.251 µM
6 | Cc1noc(C)c1-c1ccc(NC(=O)[C@@H](NC(=O)c2ccnn2C(C)C)C2CCCCCC2)nc1 [Example 123, (S)—N-(1-Cycloheptyl-2-((5-(3,5-dimethylisoxazol-4-yl)pyridin-2-yl)amino)-2-oxoethyl)-1-isopropyl-1H-pyrazole-5-carboxamide] | – | 0.0398 µM
7 | Cc1cnn(C)c1-c1ccc(NC(=O)[C@@H](NC(=O)c2ccnn2C)C2CCCCC2)nc1 [Example 177, (S)—N-(1-cyclohexyl-2-((5-(1,4-dimethyl-1H-pyrazol-5-yl)pyridin-2-yl)amino)-2-oxoethyl)-1-methyl-1H-pyrazole-5-carboxamide] | – | 0.2 µM
8 | Cc1cnn(C)c1-c1ccc(NC(=O)[C@@H](NC(=O)c2conc2C(F)(F)F)[C@H]2CC[C@H](C)CC2)nc1 [Example 194, N—((S)-2-((5-(1,4-dimethyl-1H-pyrazol-5-yl)pyridin-2-yl)amino)-1-((1r,4S)-4-methylcyclohexyl)-2-oxoethyl)-3-(trifluoromethyl)isoxazole-4-carboxamide] | – | 0.158 µM
9 | Cc1cncc(C)c1-c1ccc(NC(=O)C(NC(=O)c2ccnn2C)C2CCCCCCC2)cc1 (stereo not shown) [Example 103, N-(1-Cyclooctyl-2-((4-(3,5-dimethylpyridin-4-yl)phenyl)amino)-2-oxoethyl)-1-methyl-1H-pyrazole-5-carboxamide] | – | 0.126 µM
10 | Cc1noc(C)c1-c1ccc(NC(=O)C(NC(=O)c2ccnn2C)C2CCCCCCC2)nc1 (stereo not shown) [Example 105, N-(1-Cyclooctyl-2-((5-(3,5-dimethylisoxazol-4-yl)pyridin-2-yl)amino)-2-oxoethyl)-1-methyl-1H-pyrazole-5-carboxamide] | – | 0.158 µM
11 | COc1cnccc1-c1ccc(NC(=O)[C@@H](NC(=O)c2ccnn2C(F)F)C(c2ccccc2)c2ccccc2)cc1 [Example 46, (S)-1-(difluoromethyl)-N-(1-((4-(3-methoxypyridin-4-yl)phenyl)amino)-1-oxo-3,3-diphenylpropan-2-yl)-1H-pyrazole-5-carboxamide] | 0.1 µM | –
12 | Cn1nccc1C(=O)N[C@H](C(=O)Nc1ccc(-c2c(C(F)(F)F)cnn2C)cn1)[C@H]1CC[C@H](C)CC1 [Example 219, 1-methyl-N—((S)-2-((5-(1-methyl-4-(trifluoromethyl)-1H-pyrazol-5-yl)pyridin-2-yl)amino)-1-((1r,4S)-4-methylcyclohexyl)-2-oxoethyl)-1H-pyrazole-5-carboxamide] | – | 0.126 µM
13 | COc1ncc(-c2ccc(NC(=O)[C@@H](NC(=O)c3ccnn3C)C(c3ccccc3)c3ccccc3)cc2)c2cc[nH]c12 [Example 76, (S)—N-(1-((4-(7-methoxy-1H-pyrrolo[2,3-c]pyridin-4-yl)phenyl)amino)-1-oxo-3,3-diphenylpropan-2-yl)-1-methyl-1H-pyrazole-5-carboxamide] | 0.631 µM | –
14 | Cc1noc(C)c1-c1cnc(NC(=O)[C@@H](NC(=O)c2ccnn2C)C2CCCCCC2)c(F)c1 [Example 162, (S)—N-(1-cycloheptyl-2-((5-(3,5-dimethylisoxazol-4-yl)-3-fluoropyridin-2-yl)amino)-2-oxoethyl)-1-methyl-1H-pyrazole-5-carboxamide] | – | 0.2 µM
15 | Cc1cnn(C)c1-c1cnc(NC(=O)[C@@H](NC(=O)c2ccnn2C)C2CCCCCC2)nc1 [Example 165, (S)—N-(1-cycloheptyl-2-((5-(1,4-dimethyl-1H-pyrazol-5-yl)pyrimidin-2-yl)amino)-2-oxoethyl)-1-methyl-1H-pyrazole-5-carboxamide] | – | 0.631 µM
16 | CCc1nocc1C(=O)N[C@H](C(=O)Nc1ccc(-c2ncncc2C)cn1)[C@H]1CC[C@H](C)CC1 [Example 140, 3-Ethyl-N—((S)-1-((1r,4S)-4-methylcyclohexyl)-2-((5-(5-methylpyrimidin-4-yl)pyridin-2-yl)amino)-2-oxoethyl)isoxazole-4-carboxamide] | – | 0.631 µM
17 | Cc1cnn(C)c1-c1ccc(NC(=O)[C@@H](NC(=O)c2conc2C(C)C)[C@H]2CC[C@H](C)CC2)nc1 [Example 191, N—((S)-2-((5-(1,4-dimethyl-1H-pyrazol-5-yl)pyridin-2-yl)amino)-1-((1r,4S)-4-methylcyclohexyl)-2-oxoethyl)-3-isopropylisoxazole-4-carboxamide] | – | 0.0398 µM

More lines, now with the values ahead:

Row | IC50 [1] | IC50 [2] | SMILES
18 | 0.0251 µM | – | Cn1nccc1C(=O)N[C@H](C(=O)Nc1ccc(-c2ccncc2CC(=O)N2CCCC2)cc1)C(c1ccccc1)c1ccccc1 [Example 78, (S)-1-methyl-N-(1-oxo-1-((4-(3-(2-oxo-2-(pyrrolidin-1-yl)ethyl)pyridin-4-yl)phenyl)amino)-3,3-diphenylpropan-2-yl)-1H-pyrazole-5-carboxamide]
19 | 0.0398 µM | – | Cc1noc(C)c1-c1ccc(NC(=O)[C@@H](NC(=O)c2ccnn2C)C(c2ccccc2)c2ccccc2)cc1F [Example 60, (S)—N-(1-((4-(3,5-dimethylisoxazol-4-yl)-3-fluorophenyl)amino)-1-oxo-3,3-diphenylpropan-2-yl)-1-methyl-1H-pyrazole-5-carboxamide]
20 | – | 0.2 µM | Cc1n[nH]c(C)c1-c1ccc(NC(=O)[C@@H](NC(=O)c2ccnn2C)[C@H]2CC[C@H](C)CC2)nc1 [Example 99, N—((S)-2-((5-(3,5-Dimethyl-1H-pyrazol-4-yl)pyridin-2-yl)amino)-1-((1r,4S)-4-methylcyclohexyl)-2-oxoethyl)-1-methyl-1H-pyrazole-5-carboxamide]
21 | – | 0.251 µM | Cc1nocc1C(=O)N[C@H](C(=O)Nc1ccc(-c2c(C)noc2C)cn1)C1CCCCC1 [Example 121, (S)—N-(1-Cyclohexyl-2-((5-(3,5-dimethylisoxazol-4-yl)pyridin-2-yl)amino)-2-oxoethyl)-3-methylisoxazole-4-carboxamide]
22 | 0.0398 µM | – | COc1cnccc1-c1c(F)cc(NC(=O)[C@@H](NC(=O)c2ccnn2C)C(c2ccccc2)c2ccccc2)cc1F [Example 30, (S)—N-(1-((3,5-difluoro-4-(3-methoxypyridin-4-yl)phenyl)amino)-1-oxo-3,3-diphenylpropan-2-yl)-1-methyl-1H-pyrazole-5-carboxamide]
23 | – | 0.398 µM | Cc1cc(-c2ccc(NC(=O)[C@@H](NC(=O)c3ccnn3C)[C@H]3CC[C@H](C)CC3)nc2)c(C)cn1 [Example 153, N—((S)-2-((2′,5′-dimethyl-[3,4′-bipyridin]-6-yl)amino)-1-((1r,4S)-4-methylcyclohexyl)-2-oxoethyl)-1-methyl-1H-pyrazole-5-carboxamide]
24 | 0.02 µM | – | Cc1cnccc1-c1ccc(NC(=O)[C@@H](NC(=O)c2ccnn2C)C(c2ccccc2)c2ccccc2)cc1 [Example 4, (S)-1-methyl-N-(1-((4-(3-methylpyridin-4-yl)phenyl)amino)-1-oxo-3,3-diphenylpropan-2-yl)-1H-pyrazole-5-carboxamide]
25 | – | 0.0398 µM | CCn1nccc1C(=O)N[C@H](C(=O)Nc1ccc(-c2c(Cl)cnn2C)cn1)C1CCCCCC1 [Example 176, (S)—N-(2-((5-(4-chloro-1-methyl-1H-pyrazol-5-yl)pyridin-2-yl)amino)-1-cycloheptyl-2-oxoethyl)-1-ethyl-1H-pyrazole-5-carboxamide]
26 | – | 0.1 µM | Cc1cnn(C)c1-c1ccc(NC(=O)[C@@H](NC(=O)c2ccnn2C)[C@H]2CC[C@H](C)CC2)nc1 [Example 106, N—((S)-2-((5-(1,4-Dimethyl-1H-pyrazol-5-yl)pyridin-2-yl)amino)-1-((1r,4S)-4-methylcyclohexyl)-2-oxoethyl)-1-methyl-1H-pyrazole-5-carboxamide]
27 | – | 0.398 µM | Cc1cnn(C)c1-c1ccc(NC(=O)[C@@H](NC(=O)c2ccnn2C)[C@H]2CC[C@H](C)CC2)cn1 [Example 145, N—((S)-2-((6-(1,4-dimethyl-1H-pyrazol-5-yl)pyridin-3-yl)amino)-1-((1r,4S)-4-methylcyclohexyl)-2-oxoethyl)-1-methyl-1H-pyrazole-5-carboxamide]
28 | – | 0.0501 µM | CCn1nccc1C(=O)N[C@H](C(=O)Nc1ccc(-c2c(C)cnn2C)cn1)[C@H]1CC[C@H](C)CC1 [Example 126, N—((S)-2-((5-(1,4-Dimethyl-1H-pyrazol-5-yl)pyridin-2-yl)amino)-1-((1r,4S)-4-methylcyclohexyl)-2-oxoethyl)-1-ethyl-1H-pyrazole-5-carboxamide]
